Experimental data from US9464255B2, “Maleinized ester derivatives” (Elevance Renewable Sciences, Inc., priority 2013, dated 2016).
One block for each compound: values may come before it.

Legend:
[1] = Viscosity index (ASTM D2270); type: physicochemical
Source text: The functional base oil may have a viscosity index (ASTM D2270) in the range from about 120 to about 250, or from about 130 to about 170.

Kinematic viscosity (KV) = type: physicochemical
Method: The maleinated ester derivatives may be biodegradable and may be used as functional base oils. The functional base oil may have a kinetic viscosity (ASTM D-445) in the range from about 2 to about 1000 cSt at 100° C., or from about 2 to about 500, or from about 2 to about 100, or from about 4 to about 10 cSt. The base oil may have a viscosity up to about 35 cSt at 100° C., or in the range from about 3 to about 35 cSt, or in the range from about 5 to about 35 cSt at 100° C.

[2] = Solubility in water (observation in the biodegradation test); type: physicochemical
Source text: At study initiation, DOC concentration in the test substance replicates is not detected. […] The increase in DOC concentration from Day 0 to Day 28 is likely due to the insolubility of the test substance in water (that is, more test substance likely went into solution while stirring over time). Consequently, DOC removal cannot be calculated for the test substance.

[3] = tested on: microbial populations in the inoculum (activated sludge); test: Bacterial plate counts of reaction flask solutions at Day 28; type: cell-based; settings: study termination
Method: Bacterial plate counts are performed on the prepared activated sludge prior to initiation and each replicate reaction flask solution at Day 28. A dilution series of each sample is prepared in sterile, pH 7.2, phosphate-buffered water at 10^−2, 10^−3, 10^−4, 10^−5, and 10^−6. Duplicate 1-mL aliquots of each dilution are directly analyzed by plate counting methods patterned after methods described in Standard Methods for the Examination of Water and Wastewater. (See, American Public Health Association (APHA), American Water Works Association (AWWA), and Water Environment Federation (WEF). 1998. Standard Methods for the Examination of Water and Wastewater, 20th Edition, Part 9215 B, Pour Plate Method). The bacterial growth medium is Plate Count Agar (Difco Laboratories). The plates of inocula are incubated at 26±2° C. for five to six days before counting the number of colonies on plates with fewer than 300 colonies. The number of colonies at the dilution coming closest to 300 colonies is used to calculate colony forming units (CFU)/mL for each sample.

[4] = tested on: activated sludge (microbial inoculum); test: Aerobic biodegradability in water containing mineral salts and activated sludge (CO2 evolution, DOC); settings: toxicity control >25% ThCO2 by day 6
Method: A maleinized ester derivative in the form of hydrogenated 1-pentyl triester of maleinated-9-dodecene methyl ester (hereinafter the “test substance”) is evaluated for aerobic biodegradability in water containing mineral salts and activated sludge. The activated sludge is taken from a wastewater treatment plant and is used as a source of microbial inoculum. The objectives of the study are: 1) to evaluate the biodegradability (mineralization to CO2 production) potential of the test substance in an aerobic, aqueous medium; and 2) to determine the mineralization potential of a reference chemical in order to assess the viability of the test inoculum.
Approximately one liter of activated sludge is used as the microbial inoculum. The sludge is collected from the Columbia Wastewater Plant in Columbia, Miss. This plant treats predominately domestic sewage.
An aqueous mineral salts medium provides essential mineral nutrients and trace elements necessary to sustain the inoculum throughout the test period. The mineral salts medium is prepared by addition of reagent grade salts to reagent water. […]
The CO2-free air is introduced into each flask by positive pressure, and the flow rates (50-100 mL/minute) are measured and adjusted using flow meters. […] Temperature of the chamber is continuously measured using a Rees Scientific temperature monitoring system. […]

viscosity index (VI) [1]: 128
Viscosity Index ([1]; Table 1, ASTM D2270): 128
KV (40° C.) (Kinematic viscosity (KV); 40° C.): 24.73 cSt
KV (100° C.) (Kinematic viscosity (KV); 100° C.): 5.0 cSt
Compound: CCCCCOC(=O)CCCCCC/C=C/C(CC)C(CC(=O)OCCCCC)C(=O)OCCCCC (centres unmarked) [Example 1, Tri-pentanol ester of the maleinized methyl 9-dodecenoate]

Compound: hydrogenated 1-pentyl triester of maleinated-9-dodecene methyl ester [test substance]
solubility in water [2]: insoluble in water
effect on the population of microbes [3]: no significant effect on the population of microbes
bacterial plate count ([3]; replicate A): 2.4×10^4 CFU/mL
bacterial plate count ([3]; replicate B): 3.7×10^4 CFU/mL
inhibition of the inoculum (toxicity control) [4]: not be inhibitory
inhibition of the inoculum (toxicity control) ([4]; listed as triester): not inhibitory

Compound: O=C([O-])c1ccccc1.[Na+] [reference substance, sodium benzoate, reference compound]
bacterial plate count ([3]; single system): 1.4×10^4 CFU/mL
